Measured values from patent US6569403B1, “Determining effects of external stimuli on the brain using PET” (Miicro, Incorporated, priority 1995, dated 2003).
“Also recorded” adds a separate entry of the source.

Assays:
Format in all cases: in vivo
healthy human subjects [1] = test: PET with FDG: cerebral glucose metabolism (CMRglu) under behavioral clamp, drug versus placebo
healthy human subjects [2] = test: visual monitoring task (VMT): reaction time and accuracy
From the text: (§1) Ninety minutes after administration of fluoxetine or placebo, subjects were repositioned in the PET scanner and a visual monitoring task (VMT) was initiated. The task assured a stable behavioral condition at the time of testing. Each subject was asked to press a button with his or her right thumb every time a dim light (50% of trials) was presented on a screen mounted in front of him or her and was asked to ignore every bright light (50%). The lights were presented under computer control at random intervals ranging from 4 to 7 sec. Each subjected completed four blocks of 96 trials each (approximately 10 min per block). Subjects also completed the Profile of Mood States (POMS) before the capsule and 20 min after injection of FDG.

healthy human subjects [3] = test: Profile of Mood States (POMS): subjective effects; settings: fluoxetine 40 mg oral versus placebo
From the text: as §1

[4] = fluoxetine 40 mg oral versus placebo, voxel t-test images (FIG. 1)
[5] = ethanol 0.5 g/kg versus placebo (tonic water), FIG. 3

| Compound | relative glucose metabolism in bilateral amygdaloid complex, hippocampal formation and ventral striatum (healthy human subjects [1]; [4]) | relative glucose metabolism in right superior parietal lobe (Brodmann area 7) (healthy human subjects [1]; [4]) | Average global CMRglu (healthy human subjects [1]; fluoxetine 40 mg oral, FDG about 90 min after dosing, four healthy subjects, mean of all slices) [mg 100 g^1 min^−1] | Average global CMRglu, fluoxetine scans versus placebo scans (healthy human subjects [1]; fluoxetine 40 mg oral, paired two-tailed t-test) | accuracy on the VMT (% correct) (healthy human subjects [2]; after fluoxetine 40 mg oral) | median reaction time on the VMT (healthy human subjects [2]; after fluoxetine 40 mg oral, ± s.d.) [ms] | effects on reaction time or accuracy on the VMT (healthy human subjects [2]; fluoxetine 40 mg oral versus placebo) | subjective effects as measured by the POMS (healthy human subjects [3]) | rCMglu in frontal and temporal lobes, basal ganglia and limbic system (healthy human subjects [1]; [5]) | rCMglu in the left hemisphere (healthy human subjects [1]; [5]) |
| --- | --- | --- | --- | --- | --- | --- | --- | --- | --- | --- |
| CNCCC(Oc1ccc(C(F)(F)F)cc1)c1ccccc1 (stereo not shown) [fluoxetine] | decreased relative glucose metabolism; also recorded: decrease in CMRglu | increased relative metabolism; also recorded: increase in metabolism | 8.22±0.86 | not significantly different | 96.4±3.2 | 553 ± 64 | no systematic effects | no differences | – | – |
| CCO [ethanol] | – | – | – | – | – | – | – | – | affected | widespread increase |
